We go through ten molecules from ChEMBL document CHEMBL1201862, “PubChem BioAssay data set” (2004).

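Dose response: 5 concentrations. Exposure: 48 h. Format: 96-well plates. Endpoint: linear interpolation; highest concentration if not reached. GI50 marks 50% less growth.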 Activity calls are given as the source filed them. Cut-off read from the data, not from the text of the source: active = GI50 up to about 1.1 µM and inactive = higher. Where only a bound is given, the exact number is not on record here.

Among the test systems are A549; COLO 205; DU-145; LOX IMVI; MCF7; MDA-MB-231; MOLT-4; Malme-3M; PC-3; RPMI-8226; RXF 393; SN12C; TK-10; UACC-62; NCI-H522; OVCAR-4; SF-539; SK-MEL-5.
Holding throughout (assay): DTP human tumour cell line panel, 48 h

As usually defined, the GI50 is the concentration giving 50% growth inhibition. In the case of `CCOC(=O)NN(C(=O)OCC)C(=C(C1=CCCCC1)N1CCOCC1)N(NC(=O)OCC)C(=O)OCC`, the GI50 with A549, in the experiment on COLO 205, with DU-145, in the experiment on LOX IMVI, in the experiment with MCF7 and in the experiment on MDA-MB-231 was > 100 µM (inactive) in each case. Moreover, the GI50 in the experiment with MOLT-4, with Malme-3M, with PC-3, in the experiment on RPMI-8226, in the experiment on RXF 393 and with SN12C was > 100 µM (inactive) in each case. Moreover, the GI50 in the experiment on TK-10 and in the experiment with UACC-62 was > 100 µM (inactive) each time.

Take `CCOc1ncn(-c2ccc(NC(=S)NC3OC(CO)C(O)C(O)C3O)cc2)n1` (stereo not given): the GI50 in the experiment with A549, in the experiment with COLO 205, in the experiment on DU-145, in the experiment on LOX IMVI, with MCF7 and with MDA-MB-231 was > 100 µM (inactive) each time. The GI50 with MOLT-4, in the experiment on NCI-H522, in the experiment with OVCAR-4, in the experiment with PC-3, with RPMI-8226 and in the experiment with SF-539 was > 100 µM (inactive) in each case. For the same molecule, the GI50 in the experiment on SK-MEL-5, with SN12C, in the experiment with TK-10 and with UACC-62 was > 100 µM (inactive) throughout.

As for `S=C(Nc1ccc(Br)cn1)NC12CC3CC(CC(C3)C1)C2`, the GI50 was 16.2 µM (inactive) with A549; 62.2 µM (inactive) in the experiment with COLO 205; 41.2 µM (inactive) in the experiment with DU-145; 26.3 µM (inactive) with MCF7; 17.8 µM (inactive) with MDA-MB-231; 25.8 µM (inactive) with MOLT-4. The GI50 in the experiment with Malme-3M was 21.7 µM (inactive); in the experiment with NCI-H522, 11.2 µM (inactive); with OVCAR-4, 17.1 µM (inactive); in the experiment on PC-3 it was 17 µM (inactive); with RPMI-8226, 65.2 µM (inactive); in the experiment on RXF 393, 15.2 µM (inactive). The GI50 with SF-539 is 10.1 µM (inactive); with UACC-62 it was 17.5 µM (inactive).

Take `CCCCC(C(=O)NCCNC(=O)CCC(=O)N(C)O)C(=O)NCCNC(=O)CCC(=O)N(C)O`: the GI50 in the experiment on A549, with COLO 205, in the experiment on DU-145, with LOX IMVI, with MCF7 and in the experiment with MDA-MB-231 was > 100 µM (inactive) in each case. Further, the GI50 with MOLT-4, with Malme-3M, in the experiment with NCI-H522, in the experiment on OVCAR-4, in the experiment with PC-3 and in the experiment with RPMI-8226 was > 100 µM (inactive) each time. The GI50 in the experiment with RXF 393, with SF-539, in the experiment on SK-MEL-5, with SN12C, in the experiment on TK-10 and in the experiment with UACC-62 was > 100 µM (inactive) in each case.

For `NCC1(N2CCOCC2)C2CCCC21CO` (stereo not given), the GI50 in the experiment with A549, in the experiment on COLO 205, in the experiment with MOLT-4, in the experiment with Malme-3M, with NCI-H522 and in the experiment on OVCAR-4 was > 100 µM (inactive) each time. In addition, the GI50 with RPMI-8226, with RXF 393, in the experiment with SF-539, in the experiment on SK-MEL-5 and with SN12C was > 100 µM (inactive) each time.

Take `O=C1COc2cc3c(cc2N1)SCC(=O)N3`: the GI50 in the experiment with A549, with COLO 205, with MOLT-4, in the experiment with Malme-3M, in the experiment with NCI-H522 and in the experiment with OVCAR-4 was > 100 µM (inactive) throughout. Besides, the GI50 with RPMI-8226, in the experiment with SF-539, in the experiment with SK-MEL-5, in the experiment with TK-10 and with UACC-62 was > 100 µM (inactive) each time.

With `CC(=O)Oc1cc2c(n(C)c1=O)CCC2`, the GI50 with A549 is > 100 µM (inactive); with COLO 205, > 100 µM (inactive); in the experiment with DU-145 it was > 100 µM (inactive); in the experiment on LOX IMVI it was 96.4 µM (inactive); with MCF7, > 100 µM (inactive); in the experiment on MDA-MB-231, > 100 µM (inactive). Moreover, the GI50 was > 100 µM (inactive) with MOLT-4; > 100 µM (inactive) in the experiment on Malme-3M; > 10 µM (inactive) with NCI-H522; > 100 µM (inactive) with OVCAR-4; > 100 µM (inactive) in the experiment with PC-3; > 100 µM (inactive) with SF-539. In addition, the GI50 with SK-MEL-5, in the experiment on SN12C and in the experiment with TK-10 was > 100 µM (inactive) in each case.

For `COC(=O)/C=C/C(=O)C1C(C(=O)OC)C2(C(=O)OC)CCC1(C(=O)OC)N2` (stereo not given), the GI50 in the experiment on A549, in the experiment with COLO 205, with MOLT-4, with Malme-3M, in the experiment with OVCAR-4 and in the experiment on RPMI-8226 was > 100 µM (inactive) in each case. For the same molecule, the GI50 with RXF 393, in the experiment on SF-539, in the experiment with SK-MEL-5, in the experiment on TK-10 and in the experiment with UACC-62 was > 100 µM (inactive) in each case.

Regarding `Brc1ccc2c(c1)-c1nc3nc4c(cc3cc1CC2)CCc1ccc(Br)cc1-4`, the GI50 in the experiment with A549, in the experiment with COLO 205, in the experiment on LOX IMVI, with MCF7, in the experiment on MDA-MB-231 and in the experiment on MOLT-4 was > 100 µM (inactive) in each case. Besides, the GI50 is > 100 µM (inactive) in the experiment with Malme-3M; > 100 µM (inactive) in the experiment with NCI-H522; 0.47 µM (active) in the experiment with OVCAR-4; > 100 µM (inactive) with PC-3; > 100 µM (inactive) in the experiment with RPMI-8226; > 100 µM (inactive) in the experiment with RXF 393. Also, the GI50 in the experiment with SF-539, in the experiment with SK-MEL-5, in the experiment with SN12C and in the experiment with TK-10 was > 100 µM (inactive) each time.

Consider `Oc1ccc(Cl)cc1C1=NC(NCNC2=NC(c3ccccc3)CC(c3cc(Cl)ccc3O)=N2)=NC(c2ccccc2)C1` (stereo not given), for which the GI50 was > 100 µM (inactive) in the experiment with A549; > 100 µM (inactive) in the experiment on COLO 205; 44.2 µM (inactive) in the experiment with DU-145; > 100 µM (inactive) in the experiment with LOX IMVI; 20.9 µM (inactive) in the experiment with MCF7; > 100 µM (inactive) with MDA-MB-231. Further, the GI50 is 64.1 µM (inactive) in the experiment on OVCAR-4; > 100 µM (inactive) in the experiment with PC-3; 63.4 µM (inactive) in the experiment on RPMI-8226; 37.7 µM (inactive) in the experiment on RXF 393; > 100 µM (inactive) in the experiment on SF-539; > 100 µM (inactive) with SK-MEL-5. The GI50 with TK-10 and in the experiment with UACC-62 was > 100 µM (inactive) each time.
